# According to patent publication US8207143B2, “Methods of treating cancer and other conditions or disease states using LFMAU and LDT” (Yale University, priority 2005, dated 2012):
# Legend:
# HepG2 = test: Experiment 9: LDT enhancement of oxaliplatin on HepG2 in NCR Nu/Nu male mice; format: in vivo, human
# Description: This is a human hepatocarcinoma that is grown in tissue culture as a monolayer in MEM with 10% FBS. Several flasks of cells are grown, then harvested with pancreatin and resuspended in a balanced salt solution at 10^8 per ml the 0.1 ml of this suspension is implanted into the flank of a NCR nude mouse (T cell deficient to grow human tissues). Then approximately 10 days later, when the tumor was measurable, the drug treatment started. In general, drugs are delivered at a rate of 0.1 ml per 10 grams of body weight. Every day the mice are weighed to deter the amount to be injected and as a index of toxicity. The Tumor Volume is calculated from the measurements by the formula: length (mm)×width (mm)×width (mm)×II/6 (as a % of Day 1). Experiment 9 tested the effects of LDT (15 mg/kg, same schedule as above) on the enhancement of anti-cancer drug effect (oxaliplatin 10 mg/kg i.p., once on day 1) on HepG2in immunodeficient NCR Nu/Nu male mice.
# colon 38 mouse tumor = test: Experiment 7: LDT and LFMAU alone and with 5-Fluorouracil/leucovorin on colon 38 in immuno-competent mice; format: in vivo; settings: LDT 100 mg/kg
# Description: This tumor is passed from a solid tumor growing in mice. Several grams (assuming a gram per ml) are pressed through a sterile screen and suspended in a tissue culture media without phenol red or fetal calf serum (a balanced salt solution) at 2 ml/gram of tumor. Then 0.1 ml of this tumor suspension is implanted into the flank of the mouse. Ten days to two weeks after implantation (when the tumors could be measured with a caliper), unless otherwise indicated, the drug therapy was initiated.
# In general, drugs are delivered at a rate of 0.1 ml per 10 grams of body weight. Every day the mice are weighed to deter the amount to be injected and as a index of toxicity.
# The Tumor Volume is calculated from the measurements by the formula: length (mm)×width (mm)×width (mm)×II/6 (as a % of Day 1).
# This experiment was designed to determine the effect of LDT and LFMAU alone and in combination with 5-Fluorouracil with leucovorin rescue on the growth of mouse tumor (colon 38) in immuno-competent mice. The drugs were administered to the mice according to the following schedule:
# 5FU/LV—150 mg/kg each i.p. once on day one
# LDT—100 mg/kg p.o. b.i.d. for 5 days
# LFMAU—50 mg/kg p.o. bid for 5 days
# Combination groups received both treatments as per above schedules.
# colon 38 = test: Experiment 8: LDT and LFMAU enhancement of oxaliplatin on colon 38 growth in C57BL6 female mice; format: in vivo, mouse
# Description: This tumor is passed from a solid tumor growing in mice. Several grams (assuming a gram per ml) are pressed through a sterile screen and suspended in a tissue culture media without phenol red or fetal calf serum (a balanced salt solution) at 2 ml/gram of tumor. Then 0.1 ml of this tumor suspension is implanted into the flank of the mouse. Ten days to two weeks after implantation (when the tumors could be measured with a caliper), unless otherwise indicated, the drug therapy was initiated. In general, drugs are delivered at a rate of 0.1 ml per 10 grams of body weight. Every day the mice are weighed to deter the amount to be injected and as a index of toxicity. The Tumor Volume is calculated from the measurements by the formula: length (mm)×width (mm)×width (mm)×II/6 (as a % of Day 1). Experiment 8 tested the effects of LDT (L-dT) and LFMAU (15 mg/kg of each, same schedule as above) on the enhancement of anti-cancer drug effect (oxaliplatin 10 mg/kg i.p., once on day 1) on colon 38 growth in C57BL6 female mice.
# B16 melanoma = test: Experiment 6: B16 melanoma injected subcutaneously into C57 BL6 mice; format: in vivo, mouse; settings: B16 melanoma s.c. in C57 BL6 mice; LFMAU 50 mg/kg B.I.D., 5 days pretreatment then ten days; Controls 831±474.5
# Description: These experiments includes B16 melanoma which was injected subcutaneously into C57 BL6 mice which were pretreated for 5 days with LFMAU (B.I.D.) and then subsequently for ten days with LFMAU (BID.) at 50 mg/kg. with no other anti-cancer compound. This experiment yielded tumor size S.D. for the Controls of 831±474.5 and for the LFMAU treated mice of 160±150.3.
# [1] = immunocompetent mice, LFMAU 50 mg/kg p.o. b.i.d. for 5 days
structure (smiles),measurement,setting,value
"Cc1cn([C@@H]2C[C@@H](O)[C@H](CO)O2)c(=O)[nH]c1=O [LDT, β-L-2′-deoxyribofuranosylthymidine]","effect on HepG2 tumor, alone or in combination (FIG. 9)",HepG2; LDT 15 mg/kg,effective alone or in combination with oxaliplatin
same,duration of the effect after treatment (FIG. 9),HepG2; LDT 15 mg/kg with oxaliplatin,lasts after the nucleoside treatment is stopped
same,enhancement of anti-tumor effect of Oxaliplatin on HepG2 (FIG. 9),"HepG2; LDT 15 mg/kg, oxaliplatin 10 mg/kg i.p. once on day 1",clearly enhanced the anti-tumor effect of Oxaliplatin
same,duration of the effect after therapy (FIG. 7),colon 38 mouse tumor; [1],lasted well past the 5 day therapy
same,"effect on growth of colon 38 mouse tumor, alone (FIG. 7)",colon 38 mouse tumor; [1],slows down the growth
same,effect on the anti-cancer activity of 5-FU/LV (FIG. 7),"colon 38 mouse tumor; with 5FU/LV 150 mg/kg each i.p. once on day one, LFMAU 50 mg/kg p.o. b.i.d. 5 days",significant (additive or synergistic)
same,enhancement of anti-tumor effect of Oxaliplatin on colon 38 (FIG. 8),"colon 38; 15 mg/kg of each nucleoside, oxaliplatin 10 mg/kg i.p. once on day 1",clearly enhanced the anti-tumor effect of Oxaliplatin
same,duration of the effect after treatment (FIG. 8),colon 38; 15 mg/kg with oxaliplatin 10 mg/kg i.p.,lasts well after the nucleoside treatment is stopped
"Cc1cn([C@H]2O[C@@H](CO)[C@H](O)[C@H]2F)c(=O)[nH]c1=O [LFMAU, 2′-fluoro-5-methyl-β-L-arabinofuranosyluridine]",tumor size S.D.,B16 melanoma,160±150.3
